From patent publication US20230011869A1 (Hoffmann-La Roche Inc., priority 2018, published 2023)
Counter-ions that a name gives are not always drawn.

What follows are molecules tested on Acinetobacter baumannii ATCC17978 (assay: Antimicrobial susceptibility testing: 90% growth inhibitory concentration (IC90) determination, Iso-Sensitest broth). Conditions: 90% growth inhibitory concentration, Acinetobacter baumannii ATCC17978, Iso-Sensitest broth, OD 600 nm over 16 h; read-out: ATCC17978 IC90.
Assay type: cell-based
Summary of the method: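 A. baumannii ATCC17978 grown in Iso-Sensitest broth across 10 compound concentrations at 35±2 °C.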

Row | IC90 [µM] | Structure (SMILES)
1 | 0.49 | Cc1cc(Nc2nccn3c(-c4ccc(OC(F)F)c(F)c4)cnc23)ccc1C(=O)N1CCC(N)CC1 [Example 362, (4-aminopiperidin-1-yl)-[4-[[3-[4-(difluoromethoxy)-3-fluorophenyl]imidazo[1,2-a]pyrazin-8-yl]amino]-2-methylphenyl]methanone; hy-drochloride]
2 | 1.2 | COc1ccc(-c2cnc3c(Nc4ccc(C(=O)N5CCN(CCO)CC5)c(C)c4)nccn23)cc1 [Example 371, [4-(2-hydroxyethyl)piperazin-1-yl]-[4-[[3-(4-methoxyphenyl)imidazo[1,2-a]pyrazin-8-yl]amino]-2-methylphenyl]methanone]
3 | 4.3 | COc1ccc(-c2cnc3c(Nc4ccc(C(=O)N5CCCN(C)CC5)c(C)c4)nccn23)cc1 [Example 383, [4-[[3-(4-methoxyphenyl)imidazo[1,2-a]pyrazin-8-yl]amino]-2-methylphenyl]-(4-methyl-1,4-diazepan-1-yl)methanone]
4 | 5.2 | COc1ccc(-c2cnc3c(Nc4ccc(C(=O)N5CCC(N(C)C)C5)c(C)c4)nccn23)cc1 (stereo not shown) [Example 384, [3-(dimethylamino)pyrrolidin-1-yl]-[4-[[3-(4-methoxyphenyl)imidazo[1,2-a]pyrazin-8-yl]amino]-2-methylphenyl]methanone]

Same assay, conditions: Acinetobacter baumannii, ATCC17978, 16 h, read-out: ATCC17978 IC90, 90% growth inhibitory concentration, Acinetobacter baumannii ATCC17978, Iso-Sensitest broth, OD 600 nm over 16 h

Row | Structure (SMILES) | IC90 [µM]
5 | CNCCNC(=O)C1CCN(C(=O)c2ccc(Nc3nccn4c(-c5ccc(OC(F)F)cc5)cnc34)cc2C)CC1 [Example 358, 1-[4-[[3-[4-(difluoromethoxy)phenyl]imi-dazo[1,2-a]pyrazin-8-yl]amino]-2-methylbenzoyl]-N-[2-(methylamino)ethyl]piperidine-4-carboxamide; hydrochloride] | 0.34
6 | Cc1cc(Nc2nccn3c(-c4ccc(OC(F)F)cc4)cnc23)ccc1C(=O)N1CCC2(CCNCC2)CC1 [Example 359, 3,9-diazaspiro[5.5]undecan-3-yl-[4-[[3-[4-(difluoromethoxy)phenyl]imi-dazo[1,2-a]pyrazin-8-yl]amino]-2-methylphenyl]methanone; hy-drochloride] | 0.41
7 | Cc1cc(Nc2nccn3c(-c4ccc(OC(F)F)cc4)cnc23)ccc1C(=O)N1CCC2(CC1)CNC2 [Example 360, 2,7-diazaspiro[3.5]nonan-7-yl-[4-[[3-[4-(difluoromethoxy)phenyl]imi-dazo[1,2-a]pyrazin-8-yl]amino]-2-methylphenyl]methanone; hy-drochloride] | 0.42
8 | Cc1cc(Nc2nccn3c(-c4ccc(OC(F)F)cc4)cnc23)ccc1C(=O)N1CCC(N)CC1 [Example 361, (4-aminopiperidin-1-yl)-[4-[[3-[4-(difluoromethoxy)phenyl]imi-dazo[1,2-a]pyrazin-8-yl]amino]-2-methylphenyl]methanone; hy-drochloride] | 0.45
9 | CCc1cc(Nc2nccn3c(-c4ccc(OC(F)F)cc4)cnc23)ccc1C(=O)N1CCC(CN)CC1 [Example 363, [4-(aminomethyl)piperidin-1-yl]-[4-[[3-[4-(difluoromethoxy)phenyl]imi-dazo[1,2-a]pyrazin-8-yl]amino]-2-ethylphenyl]methanone; hydro-chloride] | 0.52
10 | Cc1cc(Nc2nccn3c(-c4ccc(OC(F)F)cc4)cnc23)ccc1C(=O)N1CCOC(CN)C1 (stereo not shown) [Example 364, [2-(aminomethyl)morpholin-4-yl]-[4-[[3-[4-(difluoromethoxy)phenyl]imi-dazo[1,2-a]pyrazin-8-yl]amino]-2-methylphenyl]methanone; hy-drochloride] | 0.53
11 | Cc1cc(Nc2nccn3c(-c4ccc(OC(F)F)cc4)cnc23)ccc1C(=O)N1CCC2(COC2)C1 [Example 365, [4-[[3-[4-(difluoromethoxy)phenyl]imi-dazo[1,2-a]pyrazin-8-yl]amino]-2-methylphenyl]-(2-oxa-7-azaspiro[3.4]octan-7-yl)methanone] | 0.55
12 | Cc1cc(Nc2nccn3c(-c4ccc(OC(F)F)cc4)cnc23)ccc1C(=O)N1CCC(N2CCOCC2)CC1 [Example 366, [4-[[3-[4-(difluoromethxoy)phenyl]imi-dazo[1,2-a]pyrazin-8-yl]amino]-2-methylphenyl]-(4-morpholin-4-ylpiperidin-1-yl)methanone] | 0.64
13 | CCN1CCN(C2CCN(C(=O)c3ccc(Nc4nccn5c(-c6ccc(OC(F)F)cc6)cnc45)cc3C)CC2)CC1 [Example 367, [4-[[3-[4-(difluoromethoxy)phenyl]imi-dazo[1,2-a]pyrazin-8-yl]amino]-2-methylphenyl]-[4-(4-ethylpiperazin-1-yl)piperidin-1-yl]methanone] | 0.69
14 | Cc1cc(Nc2nccn3c(-c4ccc(OC(F)F)cc4)cnc23)ccc1C(=O)N1CCCC(N)C1 (stereo not shown) [Example 368, (3-aminopiperidin-1-yl)-[4-[[3-[4-(difluoromethoxy)phenyl]imi-dazo[1,2-a]pyrazin-8-yl]amino]-2-methylphenyl]methanone; hy-drochloride] | 0.81
15 | CCN(CC)C(=O)N1CCN(C(=O)c2ccc(Nc3nccn4c(-c5ccc(OC(F)F)cc5)cnc34)cc2C)CC1 [Example 369, 4-[4-[[3-[4-(difluoromethoxy)phenyl]imi-dazo[1,2-a]pyrazin-8-yl]amino]-2-methylbenzoyl]-N,N-diethylpiperazine-1-carboxamide] | 0.89
16 | Cc1cc(Nc2nccn3c(-c4ccc(OC(F)F)cc4)cnc23)ccc1C(=O)N1CCC2(CCOCC2)C1 [Example 370, [4-[[3-[4-(difluoromethoxy)phenyl]imi-dazo[1,2-a]pyrazin-8-yl]amino]-2-methylphenyl]-(8-oxa-2-azaspiro[4.5]decan-2-yl)methanone] | 1.1
17 | Cc1cc(Nc2nccn3c(-c4ccc(OC(F)F)cc4)cnc23)ccc1C(=O)N1CCN(CC(=O)N(C)C)CC1 [Example 372, 2-[4-[4-[[3-[4-(difluoromethoxy)phenyl]imi-dazo[1,2-a]pyrazin-8-yl]amino]-2-methylbenzoyl]piperazin-1-yl]-N,N-dimethylacetamide] | 1.2
18 | CNC1CCN(C(=O)c2ccc(Nc3nccn4c(-c5ccc(OC(F)F)cc5)cnc34)cc2C)CC1 [Example 374, [4-[[3-[4-(difluoromethoxy)phenyl]imi-dazo[1,2-a]pyrazin-8-yl]amino]-2-methylphenyl]-[4-(methylamino)piperidin-1-yl]methanone; hydrochloride] | 1.7
19 | Cc1cc(Nc2nccn3c(-c4ccc(OC(F)F)cc4)cnc23)ccc1C(=O)N1CCC(C(N)=O)(N2CCN(C)CC2)CC1 [Example 375, 1-[4-[[3-[4-(difluoromethoxy)phenyl]imi-dazo[1,2-a]pyrazin-8-yl]amino]-2-methylbenzoyl]-4-(4-methylpiperazin-1-yl)piperidine-4-carboxamide] | 2
20 | Cc1cc(Nc2nccn3c(-c4ccc(OC(F)F)cc4)cnc23)ccc1C(=O)N1CCC2(CCCNC2)CC1 [Example 376, 2,9-diazaspiro[5.5]undecan-9-yl-[4-[[3-[4-(difluromethoxy)phenyl]imi-dazo[1,2-a]pyrazin-8-yl]amino]-2-methylphenyl]methanone; hy-drochloride] | 2
21 | Cc1cc(Nc2nccn3c(-c4ccc(OC(F)F)cc4)cnc23)ccc1C(=O)N1CCN(CC(=O)N2CCCC2)CC1 [Example 377, 2-[4-[4-[[3-[4-(difluoromethoxy)phenyl]imi-dazo[1,2-a]pyrazin-8-yl]amino]-2-methylbenzoyl]piperazin-1-yl]-1-pyrrolidin-1-ylethanone] | 2.3
22 | Cc1cc(Nc2nccn3c(-c4ccc(OC(F)F)cc4)cnc23)ccc1C(=O)N1CCOCC1CN (stereo not shown) [Example 378, [3-(aminomethyl)morpholin-4-yl]-[4-[[3-[4-(difluoromethoxy)phenyl]imi-dazo[1,2-a]pyrazin-8-yl]amino]-2-methylphenyl]methanone; hy-drochloride] | 2.5
23 | Cc1cc(Nc2nccn3c(-c4ccc(OC(F)F)cc4)cnc23)ccc1C(=O)N1CCOC2(CCNCC2)C1 [Example 379, [4-[[3-[4-(difluoromethoxy)phenyl]imi-dazo[1,2-a]pyrazin-8-yl]amino]-2-methylphenyl]-(1-oxa-4,9-diazaspiro[5.5]undecan-4-yl)methanone; hydrochloride] | 2.8
24 | Cc1cnn(CC2CCN(C(=O)c3ccc(Nc4nccn5c(-c6ccc(OC(F)F)cc6)cnc45)cc3C)CC2)c1 [Example 380, [4-[[3-[4-(difluoromethoxy)phenyl]imi-dazo[1,2-a]pyrazin-8-yl]amino]-2-methylphenyl]-[4-[(4-methylpyrazol-1-yl)methyl]piperidin-1-yl]methanone] | 2.8
25 | Cc1cc(Nc2nccn3c(-c4ccc(OC(F)F)cc4)cnc23)ccc1C(=O)N1CCC2(CCNCC2)C1 [Example 381, 2,8-diazaspiro[4.5]decan-2-yl-[4-[[3-[4-(difluoromethoxy)phenyl]imi-dazo[1,2-a]pyrazin-8-yl]amino]-2-methylphenyl]methanone; hy-drochloride] | 2.9
26 | Cc1cc(Nc2nccn3c(-c4ccc(OC(F)F)cc4)cnc23)ccc1C(=O)N1CCC(CC(=O)O)CC1 [Example 382, 2-[1-[4-[[3-[4-(difluoromethoxy)phenyl]imi-dazo[1,2-a]pyrazin-8-yl]amino]-2-methylbenzoyl]piperidin-4-yl]acetic acid] | 3.6
27 | CN1CCN(C(=O)c2ccc(Nc3nccn4c(-c5ccc(OC(F)F)cc5)cnc34)cc2C(F)(F)F)CC1 [Example 385, [4-[[3-[4-(difluoromethoxy)phenyl]imi-dazo[1,2-a]pyrazin-8-yl]amino]-2-(trifluoromethyl)phenyl]-(4-methylpiperazin-1-yl)methanone] | 7.4
28 | CCc1cc(Nc2nccn3c(-c4ccc(OC)c(F)c4)cnc23)ccc1C(=O)N1CCC(CN)CC1 [Example 386, [4-(aminomethyl)piperidin-1-yl]-[2-ethyl-4-[[3-(3-fluoro-4-methoxyphenyl)imidazo[1,2-a]pyrazin-8-yl]amino]phenyl]methanone; formic acid] | 0.18
